Data from patent US20220331219A1, “METHODS AND COMPOSITIONS FOR PROVIDING SKIN CARE BENEFITS” (DANISCO US INC., priority 2019, published 2022).
Marks after values point to notes of the source that are not given here.

Legend:
[1] = system: Phenion® Full-Thickness (FT) Skin Model; assay: Lipidomic profile of skin model after topical treatment (LC-MS); format: cell-based, human
[2] = system: reconstructed human epidermis (RHE); assay: Caffeine diffusion test ([14C]-caffeine diffusion, barrier function); format: cell-based; conditions: for Barrier function (% control) / [14C]-caffeine diffusion, % control / [14C]-caffeine diffusion, Mean (cpm): systemic, 7 days
Procedure: A test referred to as “caffeine diffusion test” was performed, which consists of the measurement of the effect of compounds mevalonolactone (MVL) on the skin barrier reinforcement. It is one method to measure skin barrier function (strength) as when the skin barrier has been strengthened, the amount of penetrating tracer molecules decreases (i.e. if skin is damaged more, the easier the tracer penetrates the skin). In this study, the effect of mevalonolactone, was assessed on [^14C]-caffeine diffusion through reconstructed human epidermis (RHE) under basal condition, in order to evaluate the skin barrier function. Caffeine diffusion is inversely proportional to barrier function. RHE (RHE, 0-day-old, Bioalternatives reference: EPI-Ba, batch n° 01015-515) were cultured under the following conditions: 37° C., 5% CO2, and the culture media was the Bioaltematives maintenance medium. The tested MVL concentration were 0.001%, 0.005% and 0.01% by weight of assay medium, in systemic way (added to the culture media).
RHE at day 0 were placed at the air/liquid interface in culture medium containing or not (control) the test compounds, their association or the reference (vitamin C at 200 μg/ml) (systemic application). RHE were then, incubated for 7 days with treatment renewals at day 3 and day 5. All experimental conditions were performed in n=3.
At the end of incubation (D7), radioactive caffeine ([^14C]-caffeine) was applied onto the surface of each epidermis. The radioactivity contained in subnatants was measured by liquid scintillation according to the following kinetic: 30 minutes, 1 and 2 hours.
Raw data were analyzed using Microsoft Excel® software and GraphPad PRISM® software. The inter-group comparisons were performed by an unpaired Student's t-test. The statistical analysis can be interpreted if n≥5, however for n<5 the statistical values are for information only. Formulas used in this report:
Standard error of the mean: sem=Sd/√n; Barrier function: […]

[3] = system: female Caucasian subjects with dry skin; assay: Skin transepidermal water loss (TEWL) after topical cream application (skin barrier function); format: in vivo, human; conditions: for Δ TEWL MVL (MVL cream zone − placebo cream zone): normalized to control and placebo, 1% MVL cream pH 5.5; for Δ TEWL MVL (Dx-D0): normalized to control, placebo and baseline D0
Procedure: Mevalonolactone was obtained and purified as described herein and formulated in a standard cosmetic base, at 1% of total composition by weight, resulting in cosmetic a composition (such as but not limited to a cosmetic cream). […] The base cream formula can be any formula well known to one skilled in the art.
Two separated studies were performed. Study 1 consisted of measuring the skin transepidermal water loss after topical application of the cosmetic creams (a cream with 1% MVL of total composition by weight called “MVL cream” and the control cream which was the same cream without MVL called “placebo”) formulated at pH=5.5, the skin physiological pH.
The cosmetic formulations comprising MVL as the active ingredient and the placebo treatment were applied to 6 female Caucasian subjects with dry skin (electrical capacitance<50 A.U.) by topical application.
For 2 weeks, each subject applied the MVL containing formulation and placebo formulation according to randomization. twice a day (in the morning and in the evening), under normal conditions of use (on clean skin, by slight massage until complete penetration), on delimited zones on their forearms.
Evaluation of the efficacy of the treatment was conducted by measuring the evolution of the transepidermal water loss of the skin induced by the cosmetic compositions on the skin. Water loss of the skin was determined by measurement of Trans Epidermal Water Loss (T.E.W.L. g/m^2/h) which is a non-invasive method to assess the integrity of the stratum corneum barrier function, by quantifying the water exchanges between the skin and the environment (Loden M. et al., 1992, British J of Dermatol 1992; 126: 137-141). Damage of the stratum corneum results in an increase in the T.E.W.L., leading to a more pervious skin. This method enables to assess and compare the protective effect of cosmetic investigational compositions on the cutaneous barrier between themselves, after repeated applications. and in comparison, with a control area (non-treated) and with values obtained before any products application.
In this study, the TEWL (g/m^2/h) was assessed at 5 different time points (Day 0 (baseline before product application). […]

[4] = MVL*H2O solubility in water (equilibrium DS content); format: physicochemical; conditions: calculated to purity 100
Procedure: Solubility is one property to characterize a crystalline compound. Crystallization is possible only above solubility concentration in supersaturated syrups. Solubility determines minimal DS concentration for the crystallization at given temperatures. The solubility is determined by standard methods like analyzing the equilibrium concentration from crystal suspension.
Equilibrium DS contents were measured and calculated between 0-20° C. range (Table 14).

[5] = 13% MVL solution in DPBS, 20 μl topical, 24 hours, vs control without MVL
[6] = MVL treated skin tissue, 24 hours

For `C[C@@](O)(CCO)CC(=O)O` [MVA, (3R)-3,5-Dihydroxy-3-methylpentanoic acid], the “cholesterol amount (in words)” value ([1]; MVA treated skin model) was “stay stable”, the “cholesterol/cholesterol sulfate ratio (in words)” value ([1]; topical MVA, exact same test condition as Example 26) was “decrease” and the “MVA treatment effect: Ratio Cholesterol/Cholesterol sulfate” value ([1]; topical MVA, exact same test condition as Example 26, p = 0.088) was “−”.
For `O=C1O[C@H]([C@@H](O)CO)C(O)=C1O` [Vitamin C, reference compound], the “caffeine diffusion through RHE (in words)” value ([2]; 200 μg/ml, systemic treatment) was “decreased significantly”, the “Barrier function (% control)” value ([2]; 200 microg/ml, 30 min) was 171** % control and the “[14C]-caffeine diffusion, % control” value ([2]; 200 microg/ml, 30 min) was 58 % control. For the same compound, the “[14C]-caffeine diffusion, Mean (cpm)” value ([2]; 200 microg/ml, 30 min) was 11133 cpm, the “Barrier function (% control)” value ([2]; 200 microg/ml, 1 hour) was 148** % control and the “[14C]-caffeine diffusion, % control” value ([2]; 200 microg/ml, 1 hour) was 68 % control. The “[14C]-caffeine diffusion, Mean (cpm)” value ([2]; 200 microg/ml, 1 hour) was 34839 cpm, the “Barrier function (% control)” value ([2]; 200 microg/ml, 2 hours) was 128** % control and the “[14C]-caffeine diffusion, % control” value ([2]; 200 microg/ml, 2 hours) was 79 % control. The “[14C]-caffeine diffusion, Mean (cpm)” value ([2]; 200 microg/ml, 2 hours) was 90717 cpm.
With `C[C@@]1(O)CCOC(=O)C1` [MVL, (R)-3-Hydroxy-3-methyl-δ-valerolactone] the “Barrier function (% control)” value ([2]; 0.001%, 30 min) was 128 % control, the “[14C]-caffeine diffusion, % control” value ([2]; 0.001%, 30 min) was 77 % control and the “[14C]-caffeine diffusion, Mean (cpm)” value ([2]; 0.001%, 30 min) was 14907 cpm. The “Barrier function (% control)” value ([2]; 0.001%, 1 hour) was 106 % control, the “[14C]-caffeine diffusion, % control” value ([2]; 0.001%, 1 hour) was 94 % control and the “[14C]-caffeine diffusion, Mean (cpm)” value ([2]; 0.001%, 1 hour) was 48423 cpm. The “Barrier function (% control)” value ([2]; 0.001%, 2 hours) was 99 % control, the “[14C]-caffeine diffusion, % control” value ([2]; 0.001%, 2 hours) was 101 % control and the “[14C]-caffeine diffusion, Mean (cpm)” value ([2]; 0.001%, 2 hours) was 117165 cpm. For the same compound, the “Barrier function (% control)” value ([2]; 0.005%, 30 min) was 113 % control, the “[14C]-caffeine diffusion, % control” value ([2]; 0.005%, 30 min) was 87 % control and the “[14C]-caffeine diffusion, Mean (cpm)” value ([2]; 0.005%, 30 min) was 16927 cpm. The “Barrier function (% control)” value ([2]; 0.005%, 1 hour) was 93 % control, the “[14C]-caffeine diffusion, % control” value ([2]; 0.005%, 1 hour) was 107 % control and the “[14C]-caffeine diffusion, Mean (cpm)” value ([2]; 0.005%, 1 hour) was 55034 cpm. For the same compound, the “Barrier function (% control)” value ([2]; 0.005%, 2 hours) was 95 % control, the “[14C]-caffeine diffusion, % control” value ([2]; 0.005%, 2 hours) was 106 % control and the “[14C]-caffeine diffusion, Mean (cpm)” value ([2]; 0.005%, 2 hours) was 122324 cpm. For the same compound, the “Barrier function (% control)” value ([2]; 0.01%, 30 min) was 97 % control, the “[14C]-caffeine diffusion, % control” value ([2]; 0.01%, 30 min) was 102 % control and the “[14C]-caffeine diffusion, Mean (cpm)” value ([2]; 0.01%, 30 min) was 19700 cpm. For the same compound, the “Barrier function (% control)” value ([2]; 0.01%, 1 hour) was 96 % control, the “[14C]-caffeine diffusion, % control” value ([2]; 0.01%, 1 hour) was 104 % control and the “[14C]-caffeine diffusion, Mean (cpm)” value ([2]; 0.01%, 1 hour) was 53545 cpm. For the same compound, the “Barrier function (% control)” value ([2]; 0.01%, 2 hours) was 99 % control, the “[14C]-caffeine diffusion, % control” value ([2]; 0.01%, 2 hours) was 101 % control and the “[14C]-caffeine diffusion, Mean (cpm)” value ([2]; 0.01%, 2 hours) was 116509 cpm. For the same compound, the “MVL treatment effect: CE-Cholesterol Esters” value [1, 5] was “+”, the “MVL treatment effect: CL-CardioLipin*” value [1, 5] was “−” and the “MVL treatment effect: DAG-Diacylglycerol” value [1, 5] was “−”. The “MVL treatment effect: HexCer-Hexosylceramide*” value [1, 5] was “+”, the “MVL treatment effect: LPE*” value [1, 5] was “−” and the “MVL treatment effect: LPE-0” value [1, 5] was “−”. The “MVL treatment effect: LPG-lyso-PG” value [1, 5] was “−”, the “MVL treatment effect: PA-Phosphatidate (PA and LPA)” value [1, 5] was “+” and the “MVL treatment effect: PC Phosphatidylcholine (PC 15:1;0_16:0;0*)” value [1, 5] was “+”. For the same compound, the “MVL treatment effect: PC-O- Phosphatidylcholine-ether (PC-O 16:1;0/18:2;0, plasmalogen)” value [1, 5] was “+”, the “MVL treatment effect: PE (species listed, *)” value [1, 5] was “−” and the “MVL treatment effect: PE O-16:1;0/18:1;0*” value [1, 5] was “−”. For the same compound, the “MVL treatment effect: PI-Phosphatidylinositol” value [1, 5] was “−”, the “MVL treatment effect: Phosphatidylglycerol (PG species listed, *)” value [1, 5] was “−” and the “MVL treatment effect: TAG-Triacylglycerol (TAG 47:2;0)” value [1, 5] was “+”. The “Cholesterol level (in words)” value [1, 6] was “unchanged”, the “PG/CL versus control samples (in words)” value [1, 6] was “significant decrease” and the “ceramides level (in words)” value [1, 6] was “unchanged”. The “cholesterol esters (CE) versus control samples (in words)” value [1, 6] was “significant increase”, the “diacylglycerol (DAG) versus control samples (in words)” value [1, 6] was “significant decrease” and the “hexosylceramide (HexCer) versus control samples (in words)” value [1, 6] was “significant increase”. The “phosphatidate (PA) versus control samples (in words)” value [1, 6] was “significant increase”, the “phosphatidylcholine-ether (PC-O) versus control samples (in words)” value [1, 6] was “significant increase” and the “phosphatidylcholines (PC) versus control samples (in words)” value [1, 6] was “significant increase”. The “phosphatidylethanolamine-ethers (LPE, LPE-O, PE-O) versus control samples (in words)” value [1, 6] was “significant decrease”, the “phosphatidylinositol versus control samples (in words)” value [1, 6] was “significant decrease” and the “phosphatidylserine (PS) level (in words)” value [1, 6] was “unchanged”. For the same compound, the “ratio cholesterol/chol sulfate (in words)” value [1, 6] was “unchanged”, the “sphingomyelin (SM) level (in words)” value [1, 6] was “unchanged” and the “triacylglycerol (TAG) versus control samples (in words)” value [1, 6] was “significant increase”. For the same compound, the Δ TEWL MVL (MVL cream zone − placebo cream zone) ([3]; D0) was 2.06 g/m²/h, the “Δ TEWL MVL (Dx-D0)” value ([3]; D1-D0) was −0.27 and the Δ TEWL MVL (MVL cream zone − placebo cream zone) ([3]; D1) was 1.79 g/m²/h. For the same compound, the “Δ TEWL MVL (Dx-D0)” value ([3]; D3-D0) was −0.74, the Δ TEWL MVL (MVL cream zone − placebo cream zone) ([3]; D3) was 1.32 g/m²/h and the “Δ TEWL MVL (Dx-D0)” value ([3]; D7-D0) was −1.11. For the same compound, the Δ TEWL MVL (MVL cream zone − placebo cream zone) ([3]; D7) was 0.95 g/m²/h, the “Δ TEWL MVL (Dx-D0)” value ([3]; D15-D0) was −1.04 and the Δ TEWL MVL (MVL cream zone − placebo cream zone) ([3]; D15) was 1.02 g/m²/h. The “skin trans epidermal water loss (in words)” value ([3]; topically applied, after 2 weeks of repeated application) was “decreases the skin trans epidermal water loss”.
Compound `CC1(O)CCOC(=O)C1.O` (stereo not shown) [MVL* H2O, Mevalonolactone monohydrate] has a solubility ([4]; 0 °C) of 43.9 % DS, a solubility ([4]; 4.8 °C) of 52.3 % DS and a solubility ([4]; 9.8 °C) of 61.2 % DS. The solubility ([4]; 15.0 °C) was 70.6 % DS and the solubility ([4]; 20.0 °C) was 79.7 % DS.
